Results taken from ChEMBL document CHEMBL5465560, “Selectivity Literature for EUbOPEN Chemogenomic Library” (2024).

Assays:
[1] = target: Serine/threonine-protein kinase MARK1 (Homo sapiens) (UniProt Q9P0L2); experiment: Selectivity interaction (KinomeScan (DiscoverX)) EUB0001079a MARK1; details: at 1 µM
[2] = target: T1, Mitogen-activated protein kinase kinase kinase 13 (Homo sapiens) (UniProt O43283); experiment: Selectivity interaction (KinomeScan (DiscoverX)) EUB0001079a MAP3K13; details: at 1 µM
T1 sequence (whole entry): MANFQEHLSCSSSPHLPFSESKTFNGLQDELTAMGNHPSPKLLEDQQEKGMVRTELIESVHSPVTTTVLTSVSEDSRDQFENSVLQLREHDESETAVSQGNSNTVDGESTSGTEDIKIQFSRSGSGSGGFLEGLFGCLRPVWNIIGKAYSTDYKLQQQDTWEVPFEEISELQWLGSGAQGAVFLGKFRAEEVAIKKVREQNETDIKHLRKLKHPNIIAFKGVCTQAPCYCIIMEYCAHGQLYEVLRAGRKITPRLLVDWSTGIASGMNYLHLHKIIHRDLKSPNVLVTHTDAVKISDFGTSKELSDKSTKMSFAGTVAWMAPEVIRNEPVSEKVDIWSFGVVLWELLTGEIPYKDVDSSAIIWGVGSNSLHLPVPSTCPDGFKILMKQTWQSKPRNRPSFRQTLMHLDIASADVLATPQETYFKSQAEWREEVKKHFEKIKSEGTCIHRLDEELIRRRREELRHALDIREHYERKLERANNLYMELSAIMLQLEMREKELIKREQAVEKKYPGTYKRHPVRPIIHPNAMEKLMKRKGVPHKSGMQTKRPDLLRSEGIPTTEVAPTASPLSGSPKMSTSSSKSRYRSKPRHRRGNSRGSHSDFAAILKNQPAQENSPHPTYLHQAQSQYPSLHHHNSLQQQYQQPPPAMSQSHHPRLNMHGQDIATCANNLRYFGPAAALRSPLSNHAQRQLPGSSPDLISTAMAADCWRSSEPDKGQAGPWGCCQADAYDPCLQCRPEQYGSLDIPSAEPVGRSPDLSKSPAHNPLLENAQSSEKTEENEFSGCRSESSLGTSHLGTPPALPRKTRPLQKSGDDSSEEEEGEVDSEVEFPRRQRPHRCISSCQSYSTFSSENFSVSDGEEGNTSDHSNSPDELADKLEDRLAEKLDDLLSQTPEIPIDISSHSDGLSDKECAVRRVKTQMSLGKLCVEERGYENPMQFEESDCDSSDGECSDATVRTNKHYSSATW

[3] = target: Interferon-induced, double-stranded RNA-activated protein kinase (Homo sapiens) (UniProt P19525); experiment: Selectivity interaction (ActivX KiNativ screen (kinase selectivity in THP-1 cell lysates)) EUB0000639a EIF2AK2; format: subcellular; details: lysate, at 0.2 µM
Chain of Interferon-induced, double-stranded RNA-activated protein kinase (Homo sapiens) (P19525 whole entry): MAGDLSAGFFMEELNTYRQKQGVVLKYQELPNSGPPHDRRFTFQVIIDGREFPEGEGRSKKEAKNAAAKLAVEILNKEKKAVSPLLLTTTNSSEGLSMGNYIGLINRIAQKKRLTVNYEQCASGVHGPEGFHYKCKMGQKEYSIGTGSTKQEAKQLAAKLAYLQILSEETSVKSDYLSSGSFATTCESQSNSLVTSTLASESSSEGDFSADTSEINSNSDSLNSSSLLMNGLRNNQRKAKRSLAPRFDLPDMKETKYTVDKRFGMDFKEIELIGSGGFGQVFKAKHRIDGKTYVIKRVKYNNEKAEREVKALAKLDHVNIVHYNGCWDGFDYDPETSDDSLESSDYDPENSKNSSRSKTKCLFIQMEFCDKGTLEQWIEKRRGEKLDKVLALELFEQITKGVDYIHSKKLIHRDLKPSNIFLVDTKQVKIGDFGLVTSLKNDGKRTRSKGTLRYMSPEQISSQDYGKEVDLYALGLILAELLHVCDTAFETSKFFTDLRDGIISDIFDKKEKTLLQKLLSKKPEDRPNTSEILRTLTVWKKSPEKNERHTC

[4] = target: T2, Serine/threonine-protein kinase TAO1 (Homo sapiens) (UniProt Q7L7X3); experiment: Selectivity interaction (KinomeScan (DiscoverX)) EUB0000595a TAOK1; details: at 10 µM
T2 sequence (whole entry): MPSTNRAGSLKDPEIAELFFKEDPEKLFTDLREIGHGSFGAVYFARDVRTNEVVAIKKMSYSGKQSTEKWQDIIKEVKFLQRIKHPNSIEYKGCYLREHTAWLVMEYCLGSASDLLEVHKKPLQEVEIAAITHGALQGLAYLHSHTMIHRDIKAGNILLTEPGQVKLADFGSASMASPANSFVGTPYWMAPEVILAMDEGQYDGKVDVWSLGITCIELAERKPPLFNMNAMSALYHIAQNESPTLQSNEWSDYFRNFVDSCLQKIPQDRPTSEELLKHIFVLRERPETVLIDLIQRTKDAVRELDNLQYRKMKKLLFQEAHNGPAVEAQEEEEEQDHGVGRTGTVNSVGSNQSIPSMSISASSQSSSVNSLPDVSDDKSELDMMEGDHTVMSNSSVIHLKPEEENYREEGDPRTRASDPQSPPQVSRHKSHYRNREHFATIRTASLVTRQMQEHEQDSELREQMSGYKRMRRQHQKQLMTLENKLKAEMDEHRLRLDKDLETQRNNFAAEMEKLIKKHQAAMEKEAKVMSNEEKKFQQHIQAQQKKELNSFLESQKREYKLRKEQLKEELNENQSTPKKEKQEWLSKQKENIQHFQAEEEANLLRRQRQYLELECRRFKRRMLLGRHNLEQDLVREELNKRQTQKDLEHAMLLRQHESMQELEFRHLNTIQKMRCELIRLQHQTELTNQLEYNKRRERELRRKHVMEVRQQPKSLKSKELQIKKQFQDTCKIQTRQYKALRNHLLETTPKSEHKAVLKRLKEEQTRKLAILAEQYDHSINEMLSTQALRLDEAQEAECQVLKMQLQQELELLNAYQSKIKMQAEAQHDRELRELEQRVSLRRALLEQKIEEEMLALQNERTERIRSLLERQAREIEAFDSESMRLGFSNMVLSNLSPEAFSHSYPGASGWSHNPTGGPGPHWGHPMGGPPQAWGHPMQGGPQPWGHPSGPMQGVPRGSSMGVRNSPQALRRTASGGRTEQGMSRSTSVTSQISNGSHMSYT

[5] = target: Mitogen-activated protein kinase 8 (Homo sapiens, UniProt P45983); experiment: Selectivity interaction (Kinase screening (Upstate/Millipore)) EUB0000604a MAPK8
Chain of Mitogen-activated protein kinase 8 (P45983 whole entry): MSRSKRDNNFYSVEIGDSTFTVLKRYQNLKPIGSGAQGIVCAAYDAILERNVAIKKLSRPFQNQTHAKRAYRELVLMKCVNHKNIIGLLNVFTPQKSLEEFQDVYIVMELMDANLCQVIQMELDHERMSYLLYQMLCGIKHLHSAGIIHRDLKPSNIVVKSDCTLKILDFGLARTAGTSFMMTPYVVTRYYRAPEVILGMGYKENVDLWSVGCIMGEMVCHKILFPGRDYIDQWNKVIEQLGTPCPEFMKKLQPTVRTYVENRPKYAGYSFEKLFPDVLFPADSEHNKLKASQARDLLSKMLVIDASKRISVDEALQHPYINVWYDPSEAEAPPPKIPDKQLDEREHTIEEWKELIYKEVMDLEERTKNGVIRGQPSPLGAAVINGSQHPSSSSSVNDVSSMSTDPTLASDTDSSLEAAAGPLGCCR

[6] = system: Proto-oncogene tyrosine-protein kinase receptor Ret (Homo sapiens), P07949 [M918T]; details: at 10 µM
Chain of Proto-oncogene tyrosine-protein kinase receptor Ret (Homo sapiens), P07949 [M918T] (P07949 whole entry M918T): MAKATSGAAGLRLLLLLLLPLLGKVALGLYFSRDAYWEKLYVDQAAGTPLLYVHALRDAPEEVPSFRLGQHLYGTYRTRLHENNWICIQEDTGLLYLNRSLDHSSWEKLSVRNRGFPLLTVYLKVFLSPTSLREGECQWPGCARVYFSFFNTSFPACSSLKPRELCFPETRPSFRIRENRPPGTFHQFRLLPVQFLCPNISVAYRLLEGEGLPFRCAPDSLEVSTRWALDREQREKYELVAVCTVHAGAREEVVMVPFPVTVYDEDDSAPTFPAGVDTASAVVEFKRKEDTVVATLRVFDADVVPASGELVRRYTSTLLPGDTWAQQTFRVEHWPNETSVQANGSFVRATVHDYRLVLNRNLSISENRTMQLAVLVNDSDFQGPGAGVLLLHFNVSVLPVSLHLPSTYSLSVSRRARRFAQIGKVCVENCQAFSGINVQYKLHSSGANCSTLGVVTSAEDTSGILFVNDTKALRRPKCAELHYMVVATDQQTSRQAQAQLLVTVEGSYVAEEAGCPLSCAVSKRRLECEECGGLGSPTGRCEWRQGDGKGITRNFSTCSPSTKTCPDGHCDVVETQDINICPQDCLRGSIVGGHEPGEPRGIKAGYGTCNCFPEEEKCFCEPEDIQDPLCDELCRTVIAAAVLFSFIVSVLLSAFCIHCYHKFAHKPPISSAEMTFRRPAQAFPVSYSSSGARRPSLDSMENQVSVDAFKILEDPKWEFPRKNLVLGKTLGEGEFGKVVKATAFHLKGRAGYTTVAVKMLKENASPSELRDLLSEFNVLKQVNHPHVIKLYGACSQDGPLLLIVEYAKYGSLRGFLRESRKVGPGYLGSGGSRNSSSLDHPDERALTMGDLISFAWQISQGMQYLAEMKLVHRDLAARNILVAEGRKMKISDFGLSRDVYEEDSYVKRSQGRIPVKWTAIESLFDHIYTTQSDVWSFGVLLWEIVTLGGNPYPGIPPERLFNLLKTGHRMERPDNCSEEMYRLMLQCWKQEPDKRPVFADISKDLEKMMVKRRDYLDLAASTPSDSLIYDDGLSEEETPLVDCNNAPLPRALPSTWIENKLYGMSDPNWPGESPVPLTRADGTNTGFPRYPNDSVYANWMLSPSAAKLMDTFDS

[7] = target: Non-receptor tyrosine-protein kinase TYK2 (Homo sapiens, UniProt P29597); details: at 10 µM
Chain of Non-receptor tyrosine-protein kinase TYK2 (P29597 whole entry): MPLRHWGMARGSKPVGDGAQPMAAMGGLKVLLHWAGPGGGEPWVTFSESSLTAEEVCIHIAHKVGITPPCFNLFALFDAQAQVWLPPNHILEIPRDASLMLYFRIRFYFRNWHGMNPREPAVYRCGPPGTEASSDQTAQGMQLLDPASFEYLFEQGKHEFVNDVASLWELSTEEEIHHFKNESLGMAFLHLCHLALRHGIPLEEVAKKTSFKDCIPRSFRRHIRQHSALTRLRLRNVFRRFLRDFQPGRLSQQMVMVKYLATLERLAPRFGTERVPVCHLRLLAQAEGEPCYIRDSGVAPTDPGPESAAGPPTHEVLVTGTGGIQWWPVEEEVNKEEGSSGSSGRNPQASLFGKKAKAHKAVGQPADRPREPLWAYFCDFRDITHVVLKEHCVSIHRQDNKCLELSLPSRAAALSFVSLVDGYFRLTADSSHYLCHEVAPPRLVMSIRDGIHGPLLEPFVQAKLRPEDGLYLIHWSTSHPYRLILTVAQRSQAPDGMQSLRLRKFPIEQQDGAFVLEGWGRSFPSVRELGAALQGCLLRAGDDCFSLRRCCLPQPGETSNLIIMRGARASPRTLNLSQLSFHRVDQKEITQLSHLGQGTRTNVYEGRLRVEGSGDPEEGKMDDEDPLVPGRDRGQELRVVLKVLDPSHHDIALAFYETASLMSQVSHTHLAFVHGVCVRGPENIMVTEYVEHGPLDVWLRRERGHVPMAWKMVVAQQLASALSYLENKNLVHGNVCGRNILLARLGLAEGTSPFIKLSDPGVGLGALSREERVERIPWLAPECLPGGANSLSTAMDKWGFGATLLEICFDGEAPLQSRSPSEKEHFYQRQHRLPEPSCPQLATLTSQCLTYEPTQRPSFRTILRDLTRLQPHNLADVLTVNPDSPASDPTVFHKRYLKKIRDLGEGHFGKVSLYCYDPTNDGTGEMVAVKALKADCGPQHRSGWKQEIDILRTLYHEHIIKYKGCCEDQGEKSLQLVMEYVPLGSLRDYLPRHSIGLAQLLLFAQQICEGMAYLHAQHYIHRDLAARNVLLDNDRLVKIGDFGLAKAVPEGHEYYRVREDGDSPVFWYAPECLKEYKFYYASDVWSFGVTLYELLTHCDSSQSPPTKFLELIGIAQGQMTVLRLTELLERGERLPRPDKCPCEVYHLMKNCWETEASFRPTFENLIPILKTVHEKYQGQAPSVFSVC

[8] = target: Mitogen-activated protein kinase kinase kinase 10 (Homo sapiens) (UniProt Q02779); experiment: Selectivity interaction (KinomeScan (DiscoverX)) EUB0001619a MAP3K10; details: at 1 µM
Chain of Mitogen-activated protein kinase kinase kinase 10 (Homo sapiens) (Q02779 whole entry, looked up): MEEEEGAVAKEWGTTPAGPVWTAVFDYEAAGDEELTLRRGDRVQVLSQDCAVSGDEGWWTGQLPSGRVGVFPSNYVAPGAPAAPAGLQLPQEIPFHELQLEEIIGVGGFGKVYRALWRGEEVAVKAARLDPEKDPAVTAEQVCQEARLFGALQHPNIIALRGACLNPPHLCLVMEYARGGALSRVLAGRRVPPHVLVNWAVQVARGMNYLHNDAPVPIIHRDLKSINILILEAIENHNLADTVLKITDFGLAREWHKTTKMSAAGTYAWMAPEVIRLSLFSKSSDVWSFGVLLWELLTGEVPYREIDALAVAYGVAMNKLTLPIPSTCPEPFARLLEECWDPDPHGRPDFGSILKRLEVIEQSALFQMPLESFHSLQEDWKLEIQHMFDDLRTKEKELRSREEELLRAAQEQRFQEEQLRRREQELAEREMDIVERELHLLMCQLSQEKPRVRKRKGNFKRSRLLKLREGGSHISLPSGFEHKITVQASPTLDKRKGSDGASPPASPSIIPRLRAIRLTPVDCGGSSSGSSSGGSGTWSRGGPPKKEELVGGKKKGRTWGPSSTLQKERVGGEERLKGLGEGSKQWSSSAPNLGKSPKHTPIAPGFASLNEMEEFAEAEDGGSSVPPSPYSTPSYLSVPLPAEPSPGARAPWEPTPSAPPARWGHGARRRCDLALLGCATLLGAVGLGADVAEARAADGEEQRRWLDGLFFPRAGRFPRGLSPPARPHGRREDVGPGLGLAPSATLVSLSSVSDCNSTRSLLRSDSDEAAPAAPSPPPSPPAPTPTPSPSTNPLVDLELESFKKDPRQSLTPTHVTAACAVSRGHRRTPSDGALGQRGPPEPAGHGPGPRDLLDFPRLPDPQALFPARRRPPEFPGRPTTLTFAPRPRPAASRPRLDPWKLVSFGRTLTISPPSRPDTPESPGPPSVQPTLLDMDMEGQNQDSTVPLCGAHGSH

[9] = target: T3, Rhodopsin kinase GRK1 (Homo sapiens) (UniProt Q15835); experiment: Selectivity interaction (KinomeScan (DiscoverX)) EUB0000655a GRK1; details: at 10 µM
T3 sequence (whole entry): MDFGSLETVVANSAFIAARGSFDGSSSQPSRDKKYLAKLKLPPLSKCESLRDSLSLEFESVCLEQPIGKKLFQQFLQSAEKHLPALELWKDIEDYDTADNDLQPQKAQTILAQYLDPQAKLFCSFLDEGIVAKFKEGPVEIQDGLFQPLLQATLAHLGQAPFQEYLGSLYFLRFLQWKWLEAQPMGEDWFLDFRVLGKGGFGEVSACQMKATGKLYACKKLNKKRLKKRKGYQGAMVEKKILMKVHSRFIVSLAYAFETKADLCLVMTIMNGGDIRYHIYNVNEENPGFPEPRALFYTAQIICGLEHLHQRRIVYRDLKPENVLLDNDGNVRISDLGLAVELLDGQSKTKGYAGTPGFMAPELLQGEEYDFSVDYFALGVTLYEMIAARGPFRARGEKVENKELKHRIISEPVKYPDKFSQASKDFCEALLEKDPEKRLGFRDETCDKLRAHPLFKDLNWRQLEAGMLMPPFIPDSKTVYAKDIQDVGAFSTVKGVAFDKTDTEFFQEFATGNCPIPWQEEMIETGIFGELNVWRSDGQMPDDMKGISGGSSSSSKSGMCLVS

Chain of Serine/threonine-protein kinase MARK1 (Homo sapiens) (Q9P0L2 whole entry, looked up): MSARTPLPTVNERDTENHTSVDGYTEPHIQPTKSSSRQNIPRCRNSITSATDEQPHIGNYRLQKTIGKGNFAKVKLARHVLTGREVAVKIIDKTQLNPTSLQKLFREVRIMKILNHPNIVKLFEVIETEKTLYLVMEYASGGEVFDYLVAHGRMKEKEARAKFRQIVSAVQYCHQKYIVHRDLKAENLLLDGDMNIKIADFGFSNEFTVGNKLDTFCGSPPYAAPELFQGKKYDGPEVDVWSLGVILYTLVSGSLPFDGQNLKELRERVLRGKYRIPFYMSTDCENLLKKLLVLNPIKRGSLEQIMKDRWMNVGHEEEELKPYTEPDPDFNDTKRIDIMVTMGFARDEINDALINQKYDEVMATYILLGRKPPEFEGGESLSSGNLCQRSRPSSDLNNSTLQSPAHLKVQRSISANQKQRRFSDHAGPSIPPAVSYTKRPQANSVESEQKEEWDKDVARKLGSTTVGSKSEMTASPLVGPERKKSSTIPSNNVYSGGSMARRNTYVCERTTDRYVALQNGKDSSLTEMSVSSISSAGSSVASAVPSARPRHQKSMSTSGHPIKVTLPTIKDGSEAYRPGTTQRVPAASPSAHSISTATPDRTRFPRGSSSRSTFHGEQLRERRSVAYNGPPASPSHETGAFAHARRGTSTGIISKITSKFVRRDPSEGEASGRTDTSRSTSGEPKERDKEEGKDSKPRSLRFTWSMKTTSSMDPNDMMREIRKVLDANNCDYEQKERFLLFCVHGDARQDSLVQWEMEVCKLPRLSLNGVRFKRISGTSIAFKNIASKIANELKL

## Nc1cnc(N2CCc3cc(S(=O)(=O)Nc4c(F)cc(Cl)cc4F)cc(N4CCCC4=O)c32)nc1 [TP-020n]
[1]
  % of control: 76%
[2]
  % of control: 100%

## CC[C@@H]1[C@H](F)C(=O)N[C@@H]1COc1nccc2cc(C(N)=O)c(OC)cc12 [ZIMLOVISERTIB]
[3]
  % of inhibition: -4.9%

## COCC(=O)NC/C=C/c1ccc2ncnc(Nc3ccc(Oc4ccc(C)nc4)c(C)c3)c2c1 [CP-724714]
[4]
  % of control: 94%

## Cc1cnc(Nc2ccc(F)cc2Cl)nc1-c1c[nH]c(C(=O)N[C@H](CO)c2cccc(Cl)c2)c1
[5]
  % of inhibition: 34%

## Cc1cc([C@@H](C)Nc2ccccc2C(=O)O)c2nc(N3CCOCC3)cc(=O)n2c1 [AZD-6482]
[6]
  % of control: 100%
[7]
  % of control: 100%

## N#Cc1cccc(-c2c[nH]c3ncnc(N4CCOCC4)c23)c1
[8]
  % of control: 100%

## CN(C)CCOc1ccc(-c2nc(-c3ccncc3)c(-c3ccc4c(c3)CC/C4=N\O)[nH]2)cc1
[9]
  % of control: 91%
